Among the data in patent publication EP0978561A1, “Antisense oligonucleotides for the inhibition of VEGF expression” (Hoechst Marion Roussel Deutschland GmbH, priority 1998, dated 2000) are IC50 values, retold here.

The test system of the data set is human VEGF. Nature of the data set: VEGF protein assay: ELISA of secreted VEGF in conditioned medium of oligonucleotide-treated cells. The data set is classed as cell-based. The conditions noted are these: cells treated 5 hours with oligonucleotide and Cellfectin, secreted VEGF in supernatant, 100% = Cellfectin without oligonucleotide, read-out: IC50 for VEGF secretion. The protocol:
The cells are plated in 96-well plates at 30,000 cells/well, 150 ul medium per well (medium depends on cell type). The next day, Cellfectin (Gibco-BRL) is diluted to 400 ug/ml in water (solution A). Oligonucleotides are diluted to 40X the final desired concentration in water (solution B). Equal amounts of solutions A and B are mixed, to give the desired volume of a solution that is 200 µg/ml Cellfectin and 20X oligonucleotide, and the mixture left at room temperature for 30 minutes. After 30 minutes, 19 volumes of Optimem (Gibco-BRL) is added to give a final solution that is 10 µg/ml Cellfectin and 1X oligonucleotide (solution C). Medium is removed from the cells, the wells are washed 2X with Optimem, and 150 µl solution C added to each well. The plates are then returned to the incubator (37°C, 5% CO2). After 5 hours, the Cellfectin/oligonucleotide solution is removed and replaced with 150 µl of regular growth medium. VEGF protein and mRNA assays are performed beginning 19 hours later.
Samples (from example 4) of conditioned medium are taken from the desired wells and assayed for the presence of human VEGF using the human VEGF ELISA kit from R & D systems.The assay protocol is the one provided with the kit.
The IC50s are calculated based on a value of 100% for the amount of VEGF protein or mRNA in cells treated with Cellfectin but no oligonucleotide.
A general note: ELISA stands for enzyme-linked immunosorbent assay.

Where two headings read alike, the source gives them in different places.

By IC50 is commonly meant the concentration at which inhibition is half-maximal. For the substance “5'-p*-(2'5'-rA*rA*rA*rA)*(teg) G*C*G C*T G A*T*A G A*C*A T*C*C*A*T*G -3' (GCGCTGATAGACATCCATG; 5'-phosphate 2'5' rA4, teg linker, all-2'-O-methyl, chemistry not fully specified) [ON 54, 2'5'(rA)4-conjugate all-2'-O-methyl]”, the 50% inhibitory concentration (IC50) was determined as 230 nM. In addition, where the note is “listed as ON54”, the IC50 was about 230 nM.

As for “5'-p*(2'5'-Co Co Co Co)(teg) G*C*G C*T G A*T*A G A*C*A T*C*C*A*T*G -3' (GCGCTGATAGACATCCATG; chemistry not fully specified) [ON 53, 2'5(Co)4-conjugate all-2'-O-methyl]”, the IC50 was 1500 nM.
